# Key:
# pERK1/2 = experiment: Immunoblot with densitometric quantification; format: cell-based, human; settings: DU145, after 1 hour
# Experimental: (§1) Protein concentration was determined using the BCA Protein Assay (Pierce), and 20-50 μg of lysate were separated in a 4-12% SDS-PAGE gel. After transfer, membranes were blocked for 15-30 min at room temperature in 5% BSA (Sigma) in Tris-buffered saline containing 0.1% Tween-20. Primary antibody was incubated for either 1.5 hours at room temperature or overnight at 4° C. Secondary antibody was incubated for 30-45 min at room temperature, and proteins were visualized with West Pico Stable (Pierce). All antibodies were used at 1:1000 dilution unless otherwise stated. pT308AKT, AKT, pT180/Y182, pT183/Y185 P38MAPK, pP38MAPK, pT202/Y204 pERK1/2, ERK1, pT183/Y185, pJNK1/2, JNK1, pT71ATF2, pT581MSK1, pT14 Cdc2, Cdc2, pT68Chk2 (cell signaling), pT334MAPKAPK, pS82HSP27 (Cell Signaling Technology, Danvers, Mass.), α-tubulin (Biomarkers, 1:50,000), Cyclin B1 (Santa Cruz Biotechnologies) and horseradish peroxidase-conjugated anti-rabbit IgG and anti-mouse IgG (1:5,000, Pierce).
# (§2) Densitometric quantifications were carried out using ImageJ software (NIMH).
# (§3) To investigate the signaling mechanisms elicited by strigolactone analogs in cancer cells, MDA-MB-231, DU145 and HCT116 cells were treated with strigolactone analogs for 1, 4 or 8 hours and lysates were analyzed by immuno-blotting. The family of MAPK enzymes plays a pivotal role in cell growth, survival and cellular stress responses. The best characterized MAPKs fall into three families: (i) the mitogen activated extracellular signal regulated kinases (ERK1/2) which are activated in response to positive proliferation signals, (ii) c-Jun amino (N)-terminal kinases (JNK1/2/3) and (iii) p38 isoforms (p38α, β, γ, δ), all are activated by environmental stress stimuli such as DNA damage, UV irradiation and inflammatory cytokines.
# JNK1/2 phosphorylation = experiment: Immunoblot with densitometric quantification; format: cell-based, human
# Experimental: as §1, §2, §3
# pAKT = experiment: Immunoblot with densitometric quantification; format: cell-based, human
# Experimental: as §1, §2
# […] The family of MAPK enzymes plays a pivotal role in cell growth, survival and cellular stress responses. […]
# [1] = system: Arabidopsis thaliana wild type root tips; experiment: Root-tip structure and cellular morphology; format: in vivo; settings: WT seedlings
# Experimental: Seeds of homozygous lines of Arabidopsis thaliana wild type (WT; Columbia; Col-0) and max2-1 mutant (http://abrc.osu.edu/) were surface-sterilized and germinated on 1/2 Murashige and Skoog (MS) plates supplemented with 1% sucrose and solidified with 0.7% agar. Plates were incubated vertically in the dark at 4° C. for two days to synchronize germination. Three days after germination, seedlings were gently transferred using forceps to 1/2 MS plates containing various concentrations of GR-24 as a mixture of four diastereomers: (±)-GR-24 and (±)-2′-epi-GR-24. The root tip of the transferred seedling was marked on the plates. The plates remained unsealed to prevent accumulation of gases (e.g., ethylene), and were positioned in an upright 45° position, and incubated at 22° C. with a light intensity of […] m-2 s-1 provided by white fluorescent tubes and under a photoperiod of 16 hours exposure to light/8 hours in the dark for 6-12 days. […] GR-24, ST-357 and ST-362 were initially dissolved in acetone to give a 4.5 mM, 10 μM and 10 μM solutions, respectively, which were then further diluted with double-distilled sterile water (DDW). […] Where differences were recorded between non-treated and acetone controls, the comparison was made between GR-24, ST-357 and ST-362-treated and acetone-treated roots. […]
# pP38 = experiment: Immunoblot with densitometric quantification; format: cell-based, human
# Experimental: Protein concentration was determined using the BCA Protein Assay (Pierce), and 20-50 μg of lysate were separated in a 4-12% SDS-PAGE gel. After transfer, membranes were blocked for 15-30 min at room temperature in 5% BSA (Sigma) in Tris-buffered saline containing 0.1% Tween-20. Primary antibody was incubated for either 1.5 hours at room temperature or overnight at 4° C. Secondary antibody was incubated for 30-45 min at room temperature, and proteins were visualized with West Pico Stable (Pierce). […]
# as §2
# To investigate the signaling mechanisms elicited by strigolactone analogs in cancer cells, MDA-MB-231, DU145 and HCT116 cells were treated with strigolactone analogs for 1, 4 or 8 hours and lysates were analyzed by immuno-blotting. […]
# Immunoblot analysis of MDA-MB-231 and HCT116 cells treated with strigolactone analogs was performed. […] At 4 hours and 8 hours, pP38 levels increased 5 fold and 13 fold respectively following ST-362 treatment compared to vehicle controls (FIG. 13B—a bar graph showing densitometric quantification of pP38 levels as shown in FIG. 13A). […]
structure (smiles),measurement,setting,value
"CC1=CC(O/C=C2\Cc3c(n(C)c4cc(-c5cccs5)ccc34)C2=O)OC1=O (racemic) [MEB-55, (±) 2E-4-methyl-2-(4-methyl-5-oxo-2,5-dihydrofuran-2-yloxymethylene)-6-thiophen-2-yl-1,4-dihydro-2H-cyclopenta[b]indol-3-one]",pERK1/2 levels reduction,pERK1/2,4 fold
same,JNK1/2 phosphorylation increase,"JNK1/2 phosphorylation; DU145, 4 hours",15 fold
same,Decrease of JNK1/2 phosphorylation from the 4 hours level,"JNK1/2 phosphorylation; DU145, 8 hours",50%
same,pAKT levels decrease,"pAKT; DU145, 8 hours",6 fold
same,pAKT levels,"pAKT; DU145, 24 hours",undetectable levels
"CC1=C[C@H](O/C=C2/C(=O)O[C@@H]3c4ccccc4C[C@H]23)OC1=O (relative stereo) [GR-24, (3aR*,8bS*,E)-3-(((R*)-4-methyl-5-oxo-2,5-dihydrofuran-2-yloxy)methylene)-3,3a,4,8b-tetrahydro-2H-indeno[1,2-b]furan-2-one]",Root tip morphology,[1]; 13.5 μM exogenously supplied,deformation of the root tips
same,Starch granules in the columella cells,[1]; 27 μM,abolished the starch granules
"CC1=CC(O/C=C2/C(=O)c3c(c4cc(-c5scc6c5OCCO6)ccc4n3C)C2C)OC1=O (stereo not drawn) [ST-362, (2E)-2-[(2,5-dihydro-4-methyl-5-oxofuran-2-yloxy)methylene]-1,2-dihydro-7-(2,3-dihydrothieno[3,4-b][1,4]dioxin-7-yl)-1,4-dimethyl-cyclopenta[b]indole-3-(4H)-one]",pP38 levels increase compared to vehicle controls,"pP38; MDA-MB-231, 4 hours",5 fold
same,pP38 levels increase compared to vehicle controls,"pP38; MDA-MB-231, 8 hours",13 fold

# — patent publication US10208007B2, “Use of strigolactones and strigolactone analogs for treating proliferative conditions” (The State of Israel, Ministry of Agriculture & Rural …, priority 2011, dated 2019)
